Patent US4765972A (priority 1986, dated 1988)

Key:
21.5 kDa polypeptide = experiment: Photolabelling of calf brain homogenate with ^3 H-NABV, 21.5 kDa polypeptide; type: binding
Procedure: (§1) Tissue homogenate high speed supernatant and pellet fractions were obtained by homogenizing 1 gram of calf brain in 10 ml volumes of 0.05 M potassium phosphate buffer, pH 7.4, for one minute with a Model PCU Polytron homogenizer with a PT-10-ST probe operated at 50% maximum power (Brinkmann Instruments, Westbury, NY). The brain tissue homogenate was collected after filtering through one layer of cheesecloth. Brain tissue high speed supernatant fractions were prepared by centrifuging the homogenates at 100,000×g for 60 minutes at 4° C. The resulting pellet was washed twice with five times its original volume of buffer, and recentrifuged as described. […] and supernatant fractions were stored in small aliquots in liquid nitrogen and thawed only once.
(§2) The standard photolabelling mixture used contained 50 nM ^3 H-NABV (50.6 Ci/mmol), 4% dimethylsulfoxide, […] potassium phosphate buffer, pH 7.0, and 2 mg/ml of tissue homogenate or high speed pellet or supernatant fractions in a final volume of 0.05 ml in polyvinylchloride V-microtiter wells (Dynatech Labs, Inc., Alexandria, VA) in a 25° C. water bath. Photolabelling mixtures were incubated for 15 minutes at 25° C. before photolysis. Photoactivation was performed for 10-20 minutes with a UV light equipped with two 15 W self-filtering 302 nm lamps (Model xx-15, Ultra-Violet Products, Inc., San Gabriel, CA), placed 3.4 cm above the photolabelling mixture. […] Photoactivated samples were immediately processed for SDS-PAGE or frozen at -70° C.
(§3) Equal volumes of SDS sample buffer were added to photolabelled mixtures in microliter wells. The mixtures were transferred to 0.5 ml centrifuge tubes. After heating for five minutes at 100° C. on a heating block, the mixtures were cooled on ice and sonicated for five seconds, cooled, and 0.08 ml aliquots of the mixtures were applied to separate wells of a 1.5 mm thick polyacrylamide slab gel.
(§4) Electrophoresis was performed as described by Laemmli in Nature (Lond.) 227, 680-685 (1970) with a linear polyacrylamide gradient from 9.7% acrylamide, 0.26% bis-acrylamide and 10% glycerol, to 16.6% acrylamide, 0.44% bis-acrylamide, and 17% glycerol using a Bio-Rad slab gel apparatus (Model 220, Richmond, CA) at 8 mA/gel for sixteen hours. Following fixation and staining of the gel, in 0.25% Coomassie brilliant blue, 45% methanol and 10% acetic acid, the lanes of stained polypeptide corresponding to each sample slot were cut and sliced into 1.0 mm slices. Each slice was incubated with 0.3 ml 30% H2 O2 in a closed scintillation vial at 100° C. for one hour to solubilize the gel slice, with radioactivity subsequently quantitated. The molecular weights of radioactive macromolecules were estimated by their mobilities relative to standard proteins of known molecular weights. (Bio-Rad, Richmone, CA). The radioactivity of photolabelled components was quantitated in triplicate by adding the dpm in each 1 mm gel slice through the radioactive peak.
(§5) The specific photolabelling was obtained by subtracting the nonspecific linear curve from the mixed biphasic profile.

[1] = tested on: 54.3 kDa polypeptide (tubulin subunit); experiment: Photolabelling of calf brain homogenate with ^3 H-NABV, 54.3 kDa polypeptide; type: binding
Procedure: as §1, §2, §3, §4, §5

[2] = tested on: 150-180 kDa surface membrane glycoprotein (gp150-180); experiment: Photoaffinity labelling of purified plasma membranes with ^125 I-NASV; type: binding, Chinese hamster; details: for increase of radiolabelling of the 150-180 kDa component versus drug-sensitive parental cells: plasma membranes
Procedure: (§6) Cell lines were cultured as described by Peterson et al., Cancer Res. 43, 222-228 (1983) and by Meyers et al., J. Cell. Biol. 100, 588-597 (1985). Vincristine-resistant (DC-3F/VCRd-5L, 2750-fold resistant) and actinomycin D-resistant (DC=3F/ADX, 2450-fold resistant) variants were selected from Chinese hamster lung (DC-3F) cells as described in the above-cited articles. The drug-sensitive revertant (DC-3F/ADX-U, 30-fold resistant to actinomycin D) was obtained from DC-3F/ADX cells grown in the absence of drugs. The resistant cells expressed a typical multidrug-resistant phenotype as typified by cross-resistance to a number of unrelated natural product compounds. Whole cell particulate fractions were prepared by the sonication of drug-sensitive or drug-resistant cells in 50 mM potassium phosphate buffer (pH 7.4), followed by centrifugation at 100,000×g for one hour. The particulate pellet was washed by resuspending in the same buffer, and the whole cell particulate fraction was obtained by a second centrifugation. Purified plasma membranes were prepared by sucrose density gradient centrifugation as described in Peterson et al in J. Supramolecular Structure 9, 289-298 (1978). Protein concentrations were determined by the procedure of Lowry et al., J. Biol. Chem., 193, 265-275 (1951).
Photolabelling of membrane samples (50 micrograms protein) was performed in 40 nM potassium phosphate buffer (pH 7.0) containing 4% Me2 SO and 50 nM of either ^3 H-NABV (0.1 microCi) or ^125 I-NASV (0.2 microCi) in a final volume of 0.050 ml. […] SDS-PAGE of 5-15% gradient gels containing 4.5 M urea, fluorography, and autoradiography were performed as described by Felsted et al. in Blood 66, 606-613 (1985). The quantitation of radiolabelling was accomplished by cutting appropriate areas from the gel and counting the pieces in a gamma counter.
A plasma membrane localization for the 150-180 kDa component was established by photoaffinity labelling sucrose density gradient purified plasma membranes from drug-sensitive and drug-resistant cells with ^3 H-NABV. […] These membranes, as well as membranes from another multidrug-resistant variant (DC-3F/ADX) originally selected for resistance to actinomycin D and from a revertant (DC-3F/ADX-U) obtained from the DC-3F/ADX variant were also photoaffinity labelled with ^125 I-NASV. […] In contrast, radiolabelling of the 150-180 kDa component in the DC-3F/ADX-U revertant cells was increased by only about 15-fold. […] In other studies, a number of drug-sensitive cell lines have been shown by immunoblottings to have barely detectable levels of analogous 150-180 kDa surface membrane glycoproteins compared to the corresponding multidrug-resistant variants. […]

tubulin [3] = experiment: Tubulin aggregation; type: biochemical; details: both drugs at similar concentrations
[4] = tested on: P388 murine leukemic cells; experiment: Growth inhibition of exponentially growing P388 cells; type: cell-based; details: Mus musculus; 72 hours exposure; exponentially growing P388 cells; read-out: IC50
From the text: Thus, NABV is ideal for probing intracellular Vinca alkaloid interactions because it retains the known biochemical and pharmacological properties of this class of drugs.

[5] = tested on: 150-180 kDa surface membrane glycoprotein (gp150-180); experiment: Photoaffinity labelling of cell particulate fractions / plasma membranes with ^3 H-NABV, competition by vinblastine; type: binding, Chinese hamster
Procedure: as §6, with “The particulate pellet was washed by resuspending in the same buffer, and the whole cell particulate fraction was obtained by a second centrifugation. Purified plasma membranes were prepared by sucrose density gradient centrifugation as described in Peterson et al in J. Supramolecular Structure 9, 289-298 (1978).” left out
Photolabelling of membrane samples (50 micrograms protein) was performed in 40 nM potassium phosphate buffer (pH 7.0) containing 4% Me2 SO and 50 nM of either ^3 H-NABV (0.1 microCi) or ^125 I-NASV (0.2 microCi) in a final volume of 0.050 ml. […] The quantitation of radiolabelling was accomplished by cutting appropriate areas from the gel and counting the pieces in a gamma counter. […]

tubulin [6] = experiment: Tubulin-dependent GTP hydrolysis; type: biochemical; details: both drugs at similar concentrations
microtubule = experiment: In vitro microtubule assembly; type: biochemical; details: both drugs at similar concentrations
[7] = tested on: 150-180 kDa surface membrane glycoprotein (gp150-180); experiment: Immunoprecipitation of ^125 I-NASV photolabelled, detergent solubilized membranes with antibody specific for gp150-180; type: binding, Chinese hamster; details: DC-3F/VCRd-5L membranes, vinblastine
Procedure: Immunoprecipitations were performed by extracting membranes (20 micrograms protein) for fifteen minutes at 4° C. with 100 microliters of 50 mM Tris-HCl buffer (pH 7.0) containing 150 mM NaCl, 1% Triton X-100, 1% sodium deoxycholate, 0.1% SDS, 1 mM ethylenediamine tetraacetic acid, 1 mM phenylmethylsulfonylfluoride, and 10 mg/ml Trayslol (Boehringer Mannheim, Indianapolis, IN). The mixtures were then incubated for one hour at 5° C. with 10 microliters rabbit polyclonal antibody specific for multidrug-resistant 150-180 kDa surface membrane glycoprotein (gp150-180).Immune complexe were obtained by incubating the mixture with Protein A-Sepharose (Pharmacia, Piscataway, NJ) for one hour at 5° C. and recovering the beads after washing four times. […]
Photolabelling of membrane samples (50 micrograms protein) was performed in 40 nM potassium phosphate buffer (pH 7.0) containing 4% Me2 SO and 50 nM of either ^3 H-NABV (0.1 microCi) or ^125 I-NASV (0.2 microCi) in a final volume of 0.050 ml. […] The quantitation of radiolabelling was accomplished by cutting appropriate areas from the gel and counting the pieces in a gamma counter.
The radiolabelled 150-180 kDa polypeptide was immunoprecipitated only from membrane extracts of drug-resistant cells. No radioactivity was precipitated when nonimmune serum was used in place of the specific antibody. […]

[8] = In-vitro NABV metabolism in calf brain homogenates; type: in vitro ADME; details: dark, 30-60 minutes at 0°, 25°, and 37° C.
Procedure: In-vitro NABV Metabolism Calf brain homogenates (100 micrograms protein) were incubated with 3H-NABV under standard photolabelling conditions for 30 minutes at 25° C. in the absence of UV light. The mixture was then extracted with 1 ml chloroform and analyzed for radioactive materials in the organic extract by silica gel thin layer chromatography using Solvent I.
This was confirmed by incubating ^3 H-NABV with brain homogenates in the dark for 30-60 minutes at 0°, 25°, and 37° C., subsequently extracting the mixtures with chloroform, and analyzing for radioactive metabolites by silica gel thin layer chromatography and high pressure liquid chromatography. A single radioactive spot corresponded to the Rf of NABV and accounted for more than 98% of the recovered radioactivity.

[9] = 0.44 micromoles ^3 H-NABV, competitor 1-22 micromoles
[10] = corrected for nonspecific labelling, apparent, not a true equilibrium constant, read-out: half maximal saturation photolabelling
[11] = saturation photolabelling experiments

## COc1cccc2c1C(=O)c1c(O)c3c(c(O)c1C2=O)C[C@@](O)(C(C)=O)C[C@@H]3O[C@H]1C[C@H](N)[C@H](O)[C@H](C)O1 [daunorubicin]
21.5 kDa polypeptide; [9]
  effect of increasing concentrations of competitor on photolabelling: negligible effects
[1]; [9]
  effect of increasing concentrations of competitor on photolabelling: negligible effects

## Nc1ccc(C(=O)O)cc1 [p-aminobenzoic acid]
21.5 kDa polypeptide; 10^3 -fold molar excess
  effect of nitrene scavenger on photolabelling: no significant effect
21.5 kDa polypeptide; 10^4 -fold molar excess
  reduction of photolabelling by nitrene scavenger: 30%
[1]; 100-fold excess over [^3 H]-NABV
  reduction of photolabelling by nitrene scavenger: 25%
[1]; up to 10^4 -fold molar excess
  further reduction of photolabelling by nitrene scavenger: no significant further reduction

## CC[C@]1(O)C[C@@H]2CN(CCc3c([nH]c4ccccc34)[C@@](C(=O)OC)(c3cc4c(cc3OC)N(C)[C@H]3[C@@](O)(C(=O)OC)[C@H](OC(C)=O)[C@]5(CC)C=CCN6CC[C@]43[C@@H]65)C2)C1 [vinblastine]
[2]; drug-resistant variants, ^125 I-NASV, 10 micromoles vinblastine
  reduction of radiolabelling of the 150-180 kDa component: 80-90%
[2]; parental and revertant cells, ^125 I-NASV, 10 micromoles vinblastine
  radiolabelling of the 150-180 kDa component in the presence of vinblastine: completely absent
Tubulin [3]
  effect on tubulin aggregation: induce tubulin aggregation
[4]
  IC50: 0.6 nM
[5]; sucrose density gradient purified plasma membranes, 10 micromole vinblastine
  reduction of radiolabelling of the 150-180 kDa component: 59%
[5]; whole cell particulate fractions, DC-3F/VCRd-5L, 10 micromoles vinblastine
  radiolabelling of the 150-180 kDa component in the presence of vinblastine: substantially reduced
Tubulin [6]
  effect on tubulin-dependent GTP hydrolysis: inhibit tubulin-dependent GTP hydrolysis
microtubule
  effect on in vitro microtubule assembly: inhibit in vitro microtubule assembly
[7]
  reduction of radiolabel in the immunoprecipitate: 96%

## N-(p-azido-3-[^125 I-]-salicyl-N'-beta-aminoethylvindesine [^125 I-NASV]
[2]; DC-3F/ADX-U revertant cells
  increase of radiolabelling of the 150-180 kDa component versus drug-sensitive parental cells: about 15 fold
[2]; drug-resistant variants (DC-3F/VCRd-5L, DC-3F/ADX)
  increase of radiolabelling of the 150-180 kDa component versus drug-sensitive parental cells: up to 150 fold

## N-(p-azido-[3,4-^3 H]benzoyl)-N'-beta-aminoethylvindesine [^3 H-NABV]
[8]
  metabolism under standard photolabelling conditions: no appreciable metabolism
[8]; TLC and HPLC
  recovered radioactivity in the single spot corresponding to the Rf of NABV: more than 98%
21.5 kDa polypeptide
  maximum saturable incorporation: 0.9 pmol ^3 H-NABV bound/mg of calf brain homogenate protein
21.5 kDa polypeptide; [10]
  Kd: 95 nM
21.5 kDa polypeptide; [11]
  percent of total labelling ascribed to nonspecific labelling: 51%
[1]
  maximum saturable incorporation: 5.5 pmol ^3 H-NABV bound/mg of calf brain homogenate protein
[1]; [10]
  Kd: 208 nM
[1]; [11]
  percent of total labelling ascribed to nonspecific labelling: 48%
